pIC50: −log10 of the molar value.

This is an account of results in patent US20240132464A1, “HETEROCYCLIC COMPOUNDS AS E3 LIGASE INHIBITORS” (Accutar Biotechnology Inc., priority 2022, published 2024).

The target of the test is T1, GID4 (Uniprot ID: Q81VV7, residues 124-289) (Homo sapiens, UniProt Q8IVV7).
T1 construct: GID4 (Uniprot ID: Q81VV7, residues 124-289)
T1 sequence (Q8IVV7 124-289): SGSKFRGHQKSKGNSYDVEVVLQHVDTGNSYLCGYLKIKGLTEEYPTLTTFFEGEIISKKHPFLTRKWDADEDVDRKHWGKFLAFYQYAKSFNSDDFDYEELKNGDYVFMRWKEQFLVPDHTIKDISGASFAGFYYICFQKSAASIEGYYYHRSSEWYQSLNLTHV
As to the kind of experiment: GID4 competitive binding assay (AlphaScreen, GID4/degron peptide PGLW). To be noted: 24 nM GID4, 48 nM biotinylated degron peptide PGLW, 4° C., read-out: IC50 (Inhibition of GID4/Degron binding by test compounds). In a few lines: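 Displacement of biotin-tagged degron tetrapeptide PGLW (48 nM) from C-terminally 6His-tagged GID4 124-289 (24 nM) read by AlphaScreen proximity signal. Compound incubation 2 h, then beads 1 h, all at 4 °C, pH 7.5, 2% DMSO final; background-corrected inhibition fitted with variable slope for IC50.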
In the case of `CN(C)CCCNC(=O)c1cnc(-c2cc(O)c3ncccc3c2)s1` [Compound 274, N-(3-(dimethylamino)propyl)-2-(8-hydroxyquinolin-6-yl)thiazole-5-carboxamide], the pIC50 is more than 6.30. As for `CN(C)CCCNC(=O)c1ncc(-c2cc(O)c3ncccc3c2)[nH]1` [Compound 275, N-(3-(dimethylamino)propyl)-5-(8-hydroxyquinolin-6-yl)-1H-imidazole-2-carboxamide], the pIC50 was more than 6.30. Then `CN(C)CCCNC(=O)c1cnc(-c2cc(O)c3ncccc3c2)cn1` [Compound 276, N-(3-(dimethylamino)propyl)-5-(8-hydroxyquinolin-6-yl)pyrazine-2-carboxamide], with more than 6.30; and `CN(C)CCCNC(=O)c1c[nH]c(-c2cc(O)c3ncccc3c2)n1` [Compound 277, N-(3-(dimethylamino)propyl)-2-(8-hydroxyquinolin-6-yl)-1H-imidazole-4-carboxamide], with more than 6.30. Then `O=C1NCCc2cc(-c3cccc(C(=O)N4CCCC4)c3)ccc21` [Compound 278, 6-(3-(pyrrolidine-1-carbonyl)phenyl)-3,4-dihydroisoquinolin-1(2H)-one], with 5.30 to 6.30. As for `CN(C)[C@H]1C[C@@H](NC(=O)c2ccc(-c3cc(O)c4ncccc4c3)cc2)C1` [Compound 279, N-(cis-3-(dimethylamino)cyclobutyl)-4-(8-hydroxyquinolin-6-yl)benzamide], the pIC50 was more than 6.30. As to `CN(C)[C@H]1C[C@H](NC(=O)c2ccc(-c3cc(O)c4ncccc4c3)cc2)C1` [Compound 280, N-(trans-3-(dimethylamino)cyclobutyl)-4-(8-hydroxyquinolin-6-yl)benzamide], the pIC50 was more than 6.30. Take `CN(C)CCCNC(=O)c1csc(-c2cc(O)c3ncccc3c2)c1` [Compound 281, N-(3-(dimethylamino)propyl)-5-(8-hydroxyquinolin-6-yl)thiophene-3-carboxamide]: the pIC50 was more than 6.30. Then `CN(C)CCCNC(=O)c1cnc(-c2cc(O)c3ncccc3c2)nc1` [Compound 282, N-(3-(dimethylamino)propyl)-2-(8-hydroxyquinolin-6-yl)pyrimidine-5-carboxamide], with more than 6.30; and `CN(C)CCCNC(=O)c1cc(-c2cc(O)c3ncccc3c2)co1` [Compound 283, N-(3-(dimethylamino)propyl)-4-(8-hydroxyquinolin-6-yl)furan-2-carboxamide], with more than 6.30. The value for `CN(C)CCCNC(=O)c1ccc(-c2cc(O)c3c(c2)CCCN3)cc1` [Compound 284, N-(3-(dimethylamino)propyl)-4-(8-hydroxy-1,2,3,4-tetrahydroquinolin-6-yl)benzamide] was less than 5.30; that for `CN(C)CCCNC(=O)c1ccc(-c2cc(O)c3nccnc3c2)cc1` [Compound 285, N-(3-(dimethylamino)propyl)-4-(8-hydroxyquinoxalin-6-yl)benzamide] was more than 6.30. As for `CN(C)[C@H]1CC[C@@H](NC(=O)c2ccc(-c3cc(O)c4ncccc4c3)cc2)CC1` [Compound 286, N-(cis-4-(dimethylamino)cyclohexyl)-4-(8-hydroxyquinolin-6-yl)benzamide], the pIC50 was more than 6.30. The value for `CN(C)[C@H]1CC[C@H](NC(=O)c2ccc(-c3cc(O)c4ncccc4c3)cc2)CC1` [Compound 287, N-(trans-4-(dimethylamino)cyclohexyl)-4-(8-hydroxyquinolin-6-yl)benzamide] was more than 6.30; that for `CN(C)CCCNC(=O)Cc1ccc(-c2cc(O)c3ncccc3c2)cc1` [Compound 288, N-(3-(dimethylamino)propyl)-2-(4-(8-hydroxyquinolin-6-yl)phenyl)acetamide] was more than 6.30. Then `CN(C)CCCCNC(=O)c1ccc(-c2cc(O)c3ncccc3c2)cc1` [Compound 289, N-(4-(dimethylamino)butyl)-4-(8-hydroxyquinolin-6-yl)benzamide], with more than 6.30; and `CN1CCCC(CNC(=O)c2ccc(-c3cc(O)c4ncccc4c3)cc2)C1` (stereo not shown) [Compound 290, 4-(8-hydroxyquinolin-6-yl)-N-((1-methylpiperidin-3-yl)methyl)benzamide], with more than 6.30. The value for `CN1CC(NC(=O)c2ccc(-c3cc(O)c4ncccc4c3)cc2)C1` [Compound 291, 4-(8-hydroxyquinolin-6-yl)-N-(1-methylazetidin-3-yl)benzamide] was more than 6.30. With `CN1CCC(CNC(=O)c2ccc(-c3cc(O)c4ncccc4c3)cc2)C1` (stereo not shown) [Compound 292, 4-(8-hydroxyquinolin-6-yl)-N-((1-methylpyrrolidin-3-yl)methyl)benzamide], the pIC50 is more than 6.30. Then `O=C(c1cccc(-c2cc(O)c3ncccc3c2)c1)N1CCCC1` [Compound 293, (3-(8-hydroxyquinolin-6-yl)phenyl)(pyrrolidin-1-yl)methanone], with 5.30 to 6.30. The value for `CN(C)CCCNC(=O)c1ccc(-c2cc(O)c3ncccc3c2)nc1` [Compound 294, N-(3-(dimethylamino)propyl)-6-(8-hydroxyquinolin-6-yl)nicotinamide] was more than 6.30; that for `CN(C)CCCNC(=O)c1ccc(-c2cc(O)c3ncccc3c2)cn1` [Compound 295, N-(3-(dimethylamino)propyl)-5-(8-hydroxyquinolin-6-yl)picolinamide] was more than 6.30; that for `CN(C)CCCNC(=O)c1ccc(-c2cc(O)c3ncccc3c2)s1` [Compound 296, N-(3-(dimethylamino)propyl)-5-(8-hydroxyquinolin-6-yl)thiophene-2-carboxamide] was more than 6.30. Then `CN1CCC(NC(=O)c2ccc(-c3cc(O)c4ncccc4c3)cc2)CC1` [Compound 297, 4-(8-hydroxyquinolin-6-yl)-N-(1-methylpiperidin-4-yl)benzamide], with more than 6.30; and `CN1CC(CNC(=O)c2ccc(-c3cc(O)c4ncccc4c3)cc2)C1` [Compound 298, 4-(8-hydroxyquinolin-6-yl)-N-((1-methylazetidin-3-yl)methyl)benzamide], with more than 6.30; and `CN(C)CCNC(=O)c1ccc(-c2cc(O)c3ncccc3c2)cc1` [Compound 299, N-(2-(dimethylamino)ethyl)-4-(8-hydroxyquinolin-6-yl)benzamide], with more than 6.30.

With `CN1CCC(CNC(=O)c2ccc(-c3cc(O)c4ncccc4c3)cc2)CC1` [Compound 300, 4-(8-hydroxyquinolin-6-yl)-N-((1-methylpiperidin-4-yl)methyl)benzamide], the pIC50 was more than 6.30. Regarding `O=C(c1ccc(-c2cc(O)c3ncccc3c2)cc1)N1CCCC1` [Compound 301, (4-(8-hydroxyquinolin-6-yl)phenyl)(pyrrolidin-1-yl)methanone], the pIC50 was 5.30 to 6.30.

`CCCNC(=O)c1ccc(-c2cc(O)c3ncccc3c2)cc1` [Compound 302, 4-(8-hydroxyquinolin-6-yl)-N-propylbenzamide]: the pIC50 is 5.30 to 6.30. Then `CNCCCNC(=O)c1ccc(-c2cc(O)c3ncccc3c2)cc1` [Compound 303, 4-(8-hydroxyquinolin-6-yl)-N-(3-(methylamino)propyl)benzamide], with more than 6.30.

For `CN(C)CCCNC(=O)c1ccc(-c2cc(O)c3ncccc3n2)cc1` [Compound 304, N-(3-(dimethylamino)propyl)-4-(4-hydroxy-1,5-naphthyridin-2-yl)benzamide], the pIC50 was 5.30 to 6.30.

Turning to `CN(C)CCCNC(=O)C1CC=C(c2cc(O)c3ncccc3c2)CC1` (stereo not shown) [Compound 305, N-(3-(dimethylamino)propyl)-4-(8-hydroxyquinolin-6-yl)cyclohex-3-ene-1-carboxamide], the pIC50 was 5.30 to 6.30. The value for `CN(C)CCCNC(=O)N1CC=C(c2cc(O)c3ncccc3c2)CC1` [Compound 306, N-(3-(dimethylamino)propyl)-4-(8-hydroxyquinolin-6-yl)-3,6-dihydropyridine-1(2H)-carboxamide] was 5.30 to 6.30; that for `CN(C)CCCNC(=O)CN1CC=C(c2cc(O)c3ncccc3c2)CC1` [Compound 307, N-(3-(dimethylamino)propyl)-2-(4-(8-hydroxyquinolin-6-yl)-3,6-dihydropyridin-1(2H)-yl)acetamide] was more than 6.30. The value for `CN(C)CCCNC(=O)c1ccc(-c2cc3cccnc3c(O)c2F)cc1` [Compound 308, N-(3-(dimethylamino)propyl)-4-(7-fluoro-8-hydroxyquinolin-6-yl)benzamide] was more than 6.30.

As for `CN(C)CCCC(=O)N1CC=C(c2cc(O)c3ncccc3c2)CC1` [Compound 309, 4-(dimethylamino)-1-(4-(8-hydroxyquinolin-6-yl)-3,6-dihydropyridin-1(2H)-yl)butan-1-one], the pIC50 was 5.30 to 6.30. As for `CN(C)CCCNC(=O)c1ccc(-c2cc(O)c3ncccc3c2)c(F)c1Cl` [Compound 310, 2-chloro-N-(3-(dimethylamino)propyl)-3-fluoro-4-(8-hydroxyquinolin-6-yl)benzamide], the pIC50 is 5.30 to 6.30.

Turning to `Cc1cc(-c2cc(O)c3ncccc3c2)ccc1C(=O)NCCCN(C)C` [Compound 311, N-(3-(dimethylamino)propyl)-4-(8-hydroxyquinolin-6-yl)-2-methylbenzamide], the pIC50 is 5.30 to 6.30. Then `CN(C)CCCNC(=O)c1ccc(-c2cc(O)c3ncccc3c2)cc1N` [Compound 312, 2-amino-N-(3-(dimethylamino)propyl)-4-(8-hydroxyquinolin-6-yl)benzamide], with more than 6.30; and `CN(C)CCCNC(=O)c1ccc(-c2cc(O)c3ncccc3c2)cc1Br` [Compound 313, 2-bromo-N-(3-(dimethylamino)propyl)-4-(8-hydroxyquinolin-6-yl)benzamide], with 5.30 to 6.30.
